In patent US20100261723A1, “TRISUBSTITUTED PYRIMIDINE DERIVATIVES FOR THE TREATMENT OF PROLIFERATIVE DISEASES” (ASTRAZENECA AB, priority 2007, published 2010):

What follows are molecules tested against T1, mTOR kinase (Homo sapiens, UniProt P42345) (assay: In vitro mTOR kinase assay, Test (a)(i) (AlphaScreen)). Settings: recombinant FLAG-tagged mTOR (1362-2549), ATP 20 μM; read-out: Test (a)(i) IC50.
T1 construct: FLAG; made in house
Assay type: biochemical
Method: (a)(i) In Vitro mTOR Kinase Assay
A C-terminal truncation of mTOR encompassing amino acid residues 1362 to 2549 of mTOR (EMBL Accession No. L34075) was stably expressed as a FLAG-tagged fusion in HEK293 cells as described by Vilella-Bach et al., […], 1999, 274, 4266-4272. The HEK293 FLAG-tagged mTOR (1362-2549) stable cell line was routinely maintained at 37° C. with 5% CO2 up to a confluency of 70-90% in Dulbecco's modified Eagle's growth medium (DMEM; Invitrogen Limited, Paisley, UK Catalogue No. 41966-029) containing 10% heat-inactivated foetal calf serum (FCS; Sigma, Poole, Dorset, UK, Catalogue No. F0392), 1% L-glutamine (Gibco, Catalogue No. 25030-024) and 2 mg/ml Geneticin (G418 sulfate; Invitrogen Limited, UK Catalogue No. 10131-027). Following expression in the mammalian HEK293 cell line, expressed protein was purified using the FLAG epitope tag using standard purification techniques.
A 30 μl mixture of recombinant purified mTOR enzyme, 1 μM biotinylated peptide substrate (Biotin-Ahx-[…]NH2; Bachem UK Ltd), ATP (20 μM) and a buffer solution [comprising Tris-HCl pH7.4 buffer (50 mM), EGTA (0.1 mM), bovine serum albumin (0.5 mg/mL), DTT (1.25 mM) and manganese chloride (10 mM)] was agitated at room temperature for 90 minutes.
These assay solutions were incubated for 2 hours at room temperature.
Phosphorylated biotinylated peptide is formed in situ as a result of mTOR mediated phosphorylation. The phosphorylated biotinylated peptide that is associated with AlphaScreen Streptavidin donor beads forms a complex with the p70 S6 Kinase (T389) 1A5 Monoclonal Antibody that is associated with Alphascreen Protein A acceptor beads. […] Accordingly, the presence of mTOR kinase activity results in an assay signal. In the presence of an mTOR kinase inhibitor, signal strength is reduced.

T1 sequence (P42345 1362-2549): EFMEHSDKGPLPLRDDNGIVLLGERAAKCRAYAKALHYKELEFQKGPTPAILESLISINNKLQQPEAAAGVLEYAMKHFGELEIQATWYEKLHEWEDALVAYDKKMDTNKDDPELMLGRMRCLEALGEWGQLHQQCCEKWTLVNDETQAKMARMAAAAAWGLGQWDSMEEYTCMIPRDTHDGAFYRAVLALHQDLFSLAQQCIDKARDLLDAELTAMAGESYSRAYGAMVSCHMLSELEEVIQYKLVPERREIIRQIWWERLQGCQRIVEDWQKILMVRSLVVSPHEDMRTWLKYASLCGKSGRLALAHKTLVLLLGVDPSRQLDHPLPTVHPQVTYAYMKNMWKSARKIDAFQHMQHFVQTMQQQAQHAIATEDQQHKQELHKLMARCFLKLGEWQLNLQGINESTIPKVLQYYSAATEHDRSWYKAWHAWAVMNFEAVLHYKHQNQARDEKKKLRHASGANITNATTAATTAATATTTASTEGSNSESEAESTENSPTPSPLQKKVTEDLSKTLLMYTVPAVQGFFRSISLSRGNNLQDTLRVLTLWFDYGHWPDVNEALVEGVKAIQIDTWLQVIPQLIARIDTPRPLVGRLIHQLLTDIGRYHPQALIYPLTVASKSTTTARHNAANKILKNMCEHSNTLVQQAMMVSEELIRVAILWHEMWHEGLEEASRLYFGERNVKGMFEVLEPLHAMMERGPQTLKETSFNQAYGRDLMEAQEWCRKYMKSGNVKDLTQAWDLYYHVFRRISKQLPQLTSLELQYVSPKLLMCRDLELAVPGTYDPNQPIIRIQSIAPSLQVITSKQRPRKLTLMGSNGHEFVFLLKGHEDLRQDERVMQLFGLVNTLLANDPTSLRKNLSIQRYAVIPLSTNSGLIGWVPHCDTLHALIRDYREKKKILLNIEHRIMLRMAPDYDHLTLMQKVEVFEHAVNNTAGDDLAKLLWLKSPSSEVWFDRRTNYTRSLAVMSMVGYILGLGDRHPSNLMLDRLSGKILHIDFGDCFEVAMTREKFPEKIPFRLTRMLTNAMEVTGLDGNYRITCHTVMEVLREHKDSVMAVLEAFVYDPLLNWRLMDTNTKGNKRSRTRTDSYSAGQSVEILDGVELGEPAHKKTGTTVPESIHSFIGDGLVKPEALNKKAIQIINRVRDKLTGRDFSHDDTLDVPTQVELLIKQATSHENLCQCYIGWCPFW

Going from CS(=O)(=O)Cc1cc(N2CCOCC2)nc(-c2ccc(NC(=O)Cc3ccco3)cc2)n1 [Example 5ai, 2-(2-furyl)-N-[4-[4-(methylsulfonylmethyl)-6-morpholin-4-yl-pyrimidin-2-yl]phenyl]acetamide] to CS(=O)(=O)Cc1cc(N2CCOCC2)nc(-c2ccc(NC(=O)CCc3ccco3)cc2)n1 [Example 5q, 3-(2-furyl)-N-[4-[4-(methylsulfonylmethyl)-6-morpholin-4-yl-pyrimidin-2-yl]phenyl]propanamide], the IC50 rises from 1640 nM to 4850 nM (3-fold). The first is the more potent here.

CS(=O)(=O)Cc1cc(N2CCOCC2)nc(-c2ccc(NC(=O)CN3CCCC3=O)cc2)n1 [Example 5aj, N-[4-[4-(methylsulfonylmethyl)-6-morpholin-4-yl-pyrimidin-2-yl]phenyl]-2-(2-oxopyrrolidin-1-yl)acetamide] and CS(=O)(=O)Cc1cc(N2CCOCC2)nc(-c2ccc(NC(=O)CN3CCOCC3)cc2)n1 [Example 5am, N-[4-[4-(methylsulfonylmethyl)-6-morpholin-4-yl-pyrimidin-2-yl]phenyl]-2-morpholin-4-yl-acetamide] are within 1.5-fold of each other in IC50: 9700 nM for the first, 9100 nM for the second.

Going from CS(=O)(=O)Cc1cc(N2CCOCC2)nc(-c2ccc(NC(=O)Cc3ncccn3)cc2)n1 [Example 5ak, N-[4-[4-(methylsulfonylmethyl)-6-morpholin-4-yl-pyrimidin-2-yl]phenyl]-2-pyrimidin-2-yl-acetamide] to CS(=O)(=O)Cc1cc(N2CCOCC2)nc(-c2ccc(NC(=O)c3csnn3)cc2)n1 [Example 5as, N-[4-[4-(methylsulfonylmethyl)-6-morpholin-4-yl-pyrimidin-2-yl]phenyl]thiadiazole-4-carboxamide], the IC50 falls from 7790 nM to 360 nM (22-fold). The second is the more potent here.

Going from CC(C)(C(N)=O)C(=O)Nc1ccc(-c2nc(CS(C)(=O)=O)cc(N3CCOCC3)n2)cc1 [Example 5al, 2,2-dimethyl-N′-[4-[4-(methylsulfonylmethyl)-6-morpholin-4-yl-pyrimidin-2-yl]phenyl]propanediamide] to CS(=O)(=O)Cc1cc(N2CCOCC2)nc(-c2ccc(NC(=O)C(N)=O)cc2)n1 [Example 5s, N-[4-[4-(methylsulfonylmethyl)-6-morpholin-4-yl-pyrimidin-2-yl]phenyl]oxamide], the IC50 falls from 3960 nM to 2290 nM (1.7-fold). The second is the more potent here.

Going from Cc1ccn(CC(=O)Nc2ccc(-c3nc(CS(C)(=O)=O)cc(N4CCOCC4)n3)cc2)n1 [Example 5an, 2-(3-methylpyrazol-1-yl)-N-[4-[4-(methylsulfonylmethyl)-6-morpholin-4-yl-pyrimidin-2-yl]phenyl]acetamide] to CCCC(=O)Nc1ccc(-c2nc(CS(C)(=O)=O)cc(N3CCOCC3)n2)cc1 [Example 5b, N-[4-[4-(methylsulfonylmethyl)-6-morpholin-4-yl-pyrimidin-2-yl]phenyl]butanamide], the IC50 falls from 29700 nM to 669 nM (44-fold). The second is the more potent here.

Going from CS(=O)(=O)Cc1cc(N2CCOCC2)nc(-c2ccc(NC(=O)c3cncs3)cc2)n1 [Example 5ao, N-[4-[4-(methylsulfonylmethyl)-6-morpholin-4-yl-pyrimidin-2-yl]phenyl]-1,3-thiazole-5-carboxamide] to CS(=O)(=O)Cc1cc(N2CCOCC2)nc(-c2ccc(NC(=O)c3cccnc3)cc2)n1 [Example 5r, N-[4-[4-(methylsulfonylmethyl)-6-morpholin-4-yl-pyrimidin-2-yl]phenyl]pyridine-3-carboxamide], the IC50 rises from 552 nM to 2760 nM (5-fold). The first is the more potent here.

Going from CO[C@H](C)C(=O)Nc1ccc(-c2nc(CS(C)(=O)=O)cc(N3CCOCC3)n2)cc1 [Example 5ap, (2R)-2-methoxy-N-[4-[4-(methylsulfonylmethyl)-6-morpholin-4-yl-pyrimidin-2-yl]phenyl]propanamide] to CC(C)C(=O)Nc1ccc(-c2nc(CS(C)(=O)=O)cc(N3CCOCC3)n2)cc1 [Example 5g, 2-methyl-N-[4-[4-(methylsulfonylmethyl)-6-morpholin-4-yl-pyrimidin-2-yl]phenyl]propanamide], the IC50 falls from 32600 nM to 3670 nM (8.9-fold).

First: CS(=O)(=O)Cc1cc(N2CCOCC2)nc(-c2ccc(NC(=O)CC(F)(F)F)cc2)n1 [Example 5aq, 3,3,3-trifluoro-N-[4-[4-(methylsulfonylmethyl)-6-morpholin-4-yl-pyrimidin-2-yl]phenyl]propanamide]
Second: CS(=O)(=O)Cc1cc(N2CCOCC2)nc(-c2ccc(NC(=O)CCC(F)(F)F)cc2)n1 [Example 5m, 4,4,4-trifluoro-N-[4-[4-(methylsulfonylmethyl)-6-morpholin-4-yl-pyrimidin-2-yl]phenyl]butanamide]
The IC50 of the first is 1.8-fold lower: 609 nM for the first, 1110 nM for the second. The first is the more potent here.

Compared with CS(=O)(=O)Cc1cc(N2CCOCC2)nc(-c2ccc(NC(=O)C(F)F)cc2)n1 [Example 5ar, 2,2-difluoro-N-[4-[4-(methylsulfonylmethyl)-6-morpholin-4-yl-pyrimidin-2-yl]phenyl]acetamide], CC(C)CC(=O)Nc1ccc(-c2nc(CS(C)(=O)=O)cc(N3CCOCC3)n2)cc1 [Example 5h, 3-methyl-N-[4-[4-(methylsulfonylmethyl)-6-morpholin-4-yl-pyrimidin-2-yl]phenyl]butanamide] is 2.4-fold higher in IC50: 1070 nM for the first, 2580 nM for the second. The first is the more potent here.

First: CS(=O)(=O)Cc1cc(N2CCOCC2)nc(-c2ccc(NC(=O)C3(C#N)CC3)cc2)n1 [Example 5at, 1-cyano-N-[4-[4-(methylsulfonylmethyl)-6-morpholin-4-yl-pyrimidin-2-yl]phenyl]cyclopropane-1-carboxamide]
Second: CS(=O)(=O)Cc1cc(N2CCOCC2)nc(-c2ccc(NC(=O)CC#N)cc2)n1 [Example 5o, 2-cyano-N-[4-[4-(methylsulfonylmethyl)-6-morpholin-4-yl-pyrimidin-2-yl]phenyl]acetamide]
The IC50 of the first is 1.8-fold lower: 1010 nM for the first, 1850 nM for the second.

Compared with CS(=O)(=O)Cc1cc(N2CCOCC2)nc(-c2ccc(NC(=O)CCC#N)cc2)n1 [Example 5au, 3-cyano-N-[4-[4-(methylsulfonylmethyl)-6-morpholin-4-yl-pyrimidin-2-yl]phenyl]propanamide], COCCC(=O)Nc1ccc(-c2nc(CS(C)(=O)=O)cc(N3CCOCC3)n2)cc1 [Example 5k, 3-methoxy-N-[4-[4-(methylsulfonylmethyl)-6-morpholin-4-yl-pyrimidin-2-yl]phenyl]propanamide] is 13-fold higher in IC50: 165 nM for the first, 2080 nM for the second. The first is the more potent here.

Compared with CC(=O)NCC(=O)Nc1ccc(-c2nc(CS(C)(=O)=O)cc(N3CCOCC3)n2)cc1 [Example 5c, N-[[4-[4-(methylsulfonylmethyl)-6-morpholin-4-yl-pyrimidin-2-yl]phenyl]carbamoylmethyl] acetamide], COCC(=O)Nc1ccc(-c2nc(CS(C)(=O)=O)cc(N3CCOCC3)n2)cc1 [Example 5j, 2-methoxy-N-[4-[4-(methylsulfonylmethyl)-6-morpholin-4-yl-pyrimidin-2-yl]phenyl]acetamide] is 6-fold higher in IC50: 1370 nM for the first, 8270 nM for the second. The first is the more potent here.

Compared with CC(=O)NC(C)C(=O)Nc1ccc(-c2nc(CS(C)(=O)=O)cc(N3CCOCC3)n2)cc1 (centres unmarked) [Example 5d, 2-acetamido-N-[4-[4-(methylsulfonylmethyl)-6-morpholin-4-yl-pyrimidin-2-yl]phenyl]propanamide], CS(=O)(=O)CC(=O)Nc1ccc(-c2nc(CS(C)(=O)=O)cc(N3CCOCC3)n2)cc1 [Example 5e, 2-methylsulfonyl-N-[4-[4-(methylsulfonylmethyl)-6-morpholin-4-yl-pyrimidin-2-yl]phenyl]acetamide] is 4.1-fold lower in IC50: 7170 nM for the first, 1770 nM for the second. The second is the more potent here.

CS(=O)(=O)Cc1cc(N2CCOCC2)nc(-c2ccc(NC(=O)c3c[nH]cn3)cc2)n1 [Example 5f, N-[4-[4-(methylsulfonylmethyl)-6-morpholin-4-yl-pyrimidin-2-yl]phenyl]-1H-imidazole-4-carboxamide] and CS(=O)(=O)Cc1cc(N2CCOCC2)nc(-c2ccc(NC(=O)c3ccco3)cc2)n1 [Example 5i, N-[4-[4-(methylsulfonylmethyl)-6-morpholin-4-yl-pyrimidin-2-yl]phenyl]furan-2-carboxamide] are within 1.5-fold of each other in IC50: 966 nM for the first, 1420 nM for the second.

Going from CCOCCC(=O)Nc1ccc(-c2nc(CS(C)(=O)=O)cc(N3CCOCC3)n2)cc1 [Example 5l, 3-ethoxy-N-[4-[4-(methylsulfonylmethyl)-6-morpholin-4-yl-pyrimidin-2-yl]phenyl]propanamide] to CS(=O)(=O)Cc1cc(N2CCOCC2)nc(-c2ccc(NC(=O)C3CC3)cc2)n1 [Example 5n, N-[4-[4-(methylsulfonylmethyl)-6-morpholin-4-yl-pyrimidin-2-yl]phenyl] cyclopropanecarboxamide], the IC50 falls from 2000 nM to 614 nM (3.3-fold). The second is the more potent here.

First: CS(=O)(=O)Cc1cc(N2CCOCC2)nc(-c2ccc(NC(=O)C3CCC(=O)N3)cc2)n1 (centres unmarked) [Example 5t, N-[4-[4-(methylsulfonylmethyl)-6-morpholin-4-yl-pyrimidin-2-yl]phenyl]-5-oxo-pyrrolidine-2-carboxamide]
Second: CS(=O)(=O)Cc1cc(N2CCOCC2)nc(-c2ccc(NC(=O)C3CCOC3)cc2)n1 (centres unmarked) [Example 5u, N-[4-[4-(methylsulfonylmethyl)-6-morpholin-4-yl-pyrimidin-2-yl]phenyl]oxolane-3-carboxamide]
The IC50 of the first is 1.7-fold lower: 2860 nM for the first, 4840 nM for the second. The first is the more potent here.
